Experimental data published in patent publication US8580802B2, “Pyrrolo[2,3-D]pyrimidines as inhibitors of Janus kinases” (Vertex Pharmaceuticals Incorporated, priority 2005, dated 2013).
pKi: −log10 of the molar value.

Experiments:
[1] = target: JAK2 (Homo sapiens, UniProt O60674); experiment: JAK2 Inhibition Assay; format: biochemical; conditions: JAK-2 enzyme, 15 μM poly(Glu)4Tyr, 12 μM ATP
Procedure: (§1) Compounds were screened for their ability to inhibit JAK3 using the assay shown below. Reactions were carried out in a kinase buffer containing 100 mM HEPES (pH 7.4), 1 mM DTT, 10 mM MgCl2, 25 mM NaCl, and 0.01% BSA. Substrate concentrations in the assay were 5 μM ATP (200 uCi/μmole ATP) and 1 μM poly(Glu)4Tyr. Reactions were carried out 25° C. and 1 nM JAK3.
(§2) To each well of a 96 well polycarbonate plate was added 1.5 μl of a candidate JAK3 inhibitor along with 50 μl of kinase buffer containing 2 μM poly(Glu)4Tyr and 10 μM ATP. This was then mixed and 50 μl of kinase buffer containing 2 nM JAK3 enzyme was added to start the reaction. After 20 minutes at room temperature (25° C.), the reaction was stopped with 50 μl of 20% trichloroacetic acid (TCA) that also contained 0.4 mM ATP. The entire contents of each well were then transferred to a 96 well glass fiber filter plate using a TomTek Cell Harvester. After washing, 60 μl of scintillation fluid was added and ^33P incorporation detected on a Perkin Elmer TopCount.
The assays were as described above in Example 36 except that JAK-2 enzyme was used, the final poly(Glu)4Tyr concentration was 15 μM, and final ATP concentration was 12 μM.

[2] = target: T1, JAK3 (Homo sapiens, UniProt P52333); experiment: JAK3 Inhibition Assay; format: biochemical; conditions: 1 nM JAK3, 1 μM poly(Glu)4Tyr, 5 μM ATP, 25° C.; read-out: enzyme inhibition data (Ki) JAK3
T1 sequence (P52333 1-1124): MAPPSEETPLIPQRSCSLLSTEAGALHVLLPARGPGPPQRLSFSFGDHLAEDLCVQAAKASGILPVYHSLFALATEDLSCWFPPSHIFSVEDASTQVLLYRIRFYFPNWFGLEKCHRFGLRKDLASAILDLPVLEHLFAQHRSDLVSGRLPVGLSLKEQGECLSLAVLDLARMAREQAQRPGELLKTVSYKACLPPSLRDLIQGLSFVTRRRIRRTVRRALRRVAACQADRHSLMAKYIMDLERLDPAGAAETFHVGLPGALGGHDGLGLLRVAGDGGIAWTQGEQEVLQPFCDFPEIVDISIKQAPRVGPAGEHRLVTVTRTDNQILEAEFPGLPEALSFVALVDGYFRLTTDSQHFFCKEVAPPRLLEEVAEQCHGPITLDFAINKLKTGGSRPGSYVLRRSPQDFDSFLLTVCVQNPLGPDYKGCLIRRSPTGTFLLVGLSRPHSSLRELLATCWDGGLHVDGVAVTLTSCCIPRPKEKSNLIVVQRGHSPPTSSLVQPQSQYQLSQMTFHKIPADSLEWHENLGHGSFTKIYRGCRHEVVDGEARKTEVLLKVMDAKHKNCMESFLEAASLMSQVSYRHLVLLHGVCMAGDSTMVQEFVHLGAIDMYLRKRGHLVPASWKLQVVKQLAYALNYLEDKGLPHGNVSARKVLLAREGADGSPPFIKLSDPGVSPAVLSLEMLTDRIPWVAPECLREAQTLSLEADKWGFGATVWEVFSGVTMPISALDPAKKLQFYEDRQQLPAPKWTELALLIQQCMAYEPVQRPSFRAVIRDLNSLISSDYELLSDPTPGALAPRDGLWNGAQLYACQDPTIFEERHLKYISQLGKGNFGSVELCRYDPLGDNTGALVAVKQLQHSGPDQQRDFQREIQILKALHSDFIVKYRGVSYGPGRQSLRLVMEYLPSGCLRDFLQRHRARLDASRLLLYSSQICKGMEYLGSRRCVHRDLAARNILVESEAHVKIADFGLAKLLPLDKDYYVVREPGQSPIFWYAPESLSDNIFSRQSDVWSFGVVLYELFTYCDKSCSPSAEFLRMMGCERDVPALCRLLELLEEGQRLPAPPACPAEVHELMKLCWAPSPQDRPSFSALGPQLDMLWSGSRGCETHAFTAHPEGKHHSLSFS
Procedure: as §1, §2

Sequence of JAK2 (O60674 whole entry): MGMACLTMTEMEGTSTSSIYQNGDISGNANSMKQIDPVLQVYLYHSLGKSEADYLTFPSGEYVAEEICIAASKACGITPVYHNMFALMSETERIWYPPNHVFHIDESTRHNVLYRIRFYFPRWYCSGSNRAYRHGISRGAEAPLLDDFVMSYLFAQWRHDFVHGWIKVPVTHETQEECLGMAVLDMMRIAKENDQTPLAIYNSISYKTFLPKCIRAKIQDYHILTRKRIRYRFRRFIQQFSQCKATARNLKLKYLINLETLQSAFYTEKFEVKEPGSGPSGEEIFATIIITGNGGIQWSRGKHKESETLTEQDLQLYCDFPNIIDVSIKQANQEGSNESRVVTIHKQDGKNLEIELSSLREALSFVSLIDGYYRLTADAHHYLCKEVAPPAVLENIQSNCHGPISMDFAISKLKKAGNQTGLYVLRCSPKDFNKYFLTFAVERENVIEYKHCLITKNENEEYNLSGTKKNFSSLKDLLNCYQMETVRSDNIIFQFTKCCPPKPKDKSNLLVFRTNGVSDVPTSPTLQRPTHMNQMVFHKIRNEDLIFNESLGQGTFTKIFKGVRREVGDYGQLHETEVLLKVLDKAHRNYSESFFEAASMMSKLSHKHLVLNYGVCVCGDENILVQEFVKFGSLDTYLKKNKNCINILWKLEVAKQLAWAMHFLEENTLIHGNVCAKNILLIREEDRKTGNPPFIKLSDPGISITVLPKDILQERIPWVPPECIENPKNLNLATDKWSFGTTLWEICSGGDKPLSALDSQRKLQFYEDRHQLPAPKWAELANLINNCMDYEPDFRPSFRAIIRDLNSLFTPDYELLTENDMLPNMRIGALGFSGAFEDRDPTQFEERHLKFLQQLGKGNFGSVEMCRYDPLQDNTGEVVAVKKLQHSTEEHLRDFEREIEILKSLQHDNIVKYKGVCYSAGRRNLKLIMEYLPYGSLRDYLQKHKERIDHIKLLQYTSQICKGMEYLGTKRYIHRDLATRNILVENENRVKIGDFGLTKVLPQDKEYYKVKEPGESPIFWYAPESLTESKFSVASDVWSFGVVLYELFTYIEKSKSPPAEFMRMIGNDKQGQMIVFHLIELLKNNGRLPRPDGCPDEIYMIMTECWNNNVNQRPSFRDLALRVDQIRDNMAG

| SMILES | pKi [1] | pKi [2] |
| --- | --- | --- |
| O=C(NCC(F)(F)F)C(Nc1nc(-c2c[nH]c3ncncc23)ncc1F)c1cccnc1 (stereo not drawn) [Compound 67] | 5.30 to 6.30 | 5.30 to 6.30 |
| O=C(CCNc1nc(-c2c[nH]c3ncncc23)ncc1F)NCC(F)(F)F [Compound 71] | > 6.30 | > 6.30 |
| O=C(NCC(F)(F)F)[C@H]1CCCN1c1ccnc(-c2c[nH]c3ncncc23)n1 [Compound 72] | > 6.30 | > 6.30 |
| CC(C)[C@H](C(=O)NCC(F)(F)F)N(C)c1nc(-c2c[nH]c3ncncc23)ncc1F [Compound 74] | > 6.30 | > 6.30 |
| O=C(CNc1ccnc(-c2c[nH]c3ncncc23)n1)NCC(F)(F)F [Compound 76] | > 6.30 | > 6.30 |
| C[C@@H](Nc1ncnc(-c2c[nH]c3ncncc23)n1)C(=O)NCC(F)(F)F [Compound 78, (R)-2-(4-(7H-pyrrolo[2,3-d]pyrimidin-5-yl)-1,3,5-triazin-2-ylamino)-N-(2,2,2-trifluoroethyl)propanamide] | 5.30 to 6.30 | > 6.30 |
| C[C@H](Nc1ncnc(-c2c[nH]c3ncncc23)n1)C(=O)NCC(F)(F)F [Compound 79, (S)-2-(4-(7H-pyrrolo[2,3-d]pyrimidin-5-yl)-1,3,5-triazin-2-ylamino)-N-(2,2,2-trifluoroethyl)propanamide] | 5.30 to 6.30 | > 6.30 |
| CC[C@@](C)(Nc1ccnc(-c2c[nH]c3ncncc23)n1)C(=O)NCC(F)(F)F [Compound 80] | > 6.30 | > 6.30 |
| CC[C@@](C)(Nc1nc(-c2c[nH]c3ncncc23)ncc1F)C(=O)NCC(F)(F)F [Compound 81] | > 6.30 | > 6.30 |
| C[C@@H](Nc1ccnc(-c2c[nH]c3ncncc23)n1)c1ccc(F)cc1 [Compound 83] | > 6.30 | > 6.30 |
| C[C@@H](c1ccccc1)N(C)c1ccnc(-c2c[nH]c3ncncc23)n1 [Compound 86] | 5.30 to 6.30 | > 6.30 |
| CC[C@](C)(Nc1ccnc(-c2c[nH]c3ncncc23)n1)C(=O)NCC(F)(F)F [Compound 88] | > 6.30 | > 6.30 |
| CCC(CC)(Nc1nc(-c2c[nH]c3ncncc23)ncc1F)C(=O)NCC(F)(F)F [Compound 89] | > 6.30 | > 6.30 |
| CC[C@@H](Nc1ncnc(-c2c[nH]c3ncncc23)n1)C(=O)NCC(F)(F)F [Compound 91] | > 6.30 | > 6.30 |
| O=C(NCC(F)(F)F)C1(Nc2ncnc(-c3c[nH]c4ncncc34)n2)CCCC1 [Compound 92] | > 6.30 | > 6.30 |
| O=C(NCC(F)(F)F)[C@H]1C[C@H](O)CN1c1nc(-c2c[nH]c3ncncc23)ncc1F [Compound 93] | 5.30 to 6.30 | > 6.30 |
| O=C(NCC(F)(F)F)[C@H]1C[C@H](O)CN1c1ccnc(-c2c[nH]c3ncncc23)n1 [Compound 94] | > 6.30 | > 6.30 |
| CN(c1ccnc(-c2c[nH]c3ncncc23)n1)C1(C(=O)NCC(F)(F)F)CC1 [Compound 96] | > 6.30 | > 6.30 |
| O=C(NCC(F)(F)F)C1(Nc2ccnc(-c3c[nH]c4ncncc34)n2)CCOC1 (stereo not drawn) [Compound 101] | > 6.30 | > 6.30 |
| C[C@@H](Nc1ccnc(-c2c[nH]c3ncncc23)n1)C(=O)N(C)CC(F)(F)F [Compound 103] | 5.30 to 6.30 | > 6.30 |
| C[C@@H](Nc1nc(-c2c[nH]c3ncncc23)ncc1F)C(=O)N(C)CC(F)(F)F [Compound 104] | 5.30 to 6.30 | > 6.30 |
| CC(C)(Nc1nc(-c2c[nH]c3ncncc23)ncc1F)C(=O)NCCF [Compound 106] | > 6.30 | > 6.30 |
| CC(C)(Nc1nc(-c2c[nH]c3ncncc23)ncc1F)C(=O)NCC(F)F [Compound 107] | > 6.30 | > 6.30 |
| O=C(Cn1ccc2cnc(-c3c[nH]c4ncncc34)nc21)NCC(F)(F)F [Compound 109] | > 6.30 | > 6.30 |
| CC(C)[C@H](C(=O)NCC(F)(F)F)n1ccc2cnc(-c3c[nH]c4ncncc34)nc21 [Compound 110, (R)-2-(2-(7H-pyrrolo[2,3-d]pyrimidin-5-yl)-7H-pyrrolo[2,3-d]pyrimidin-7-yl)-N-(2,2,2-trifluoroethyl)-3-methylbutanamide] | > 6.30 | > 6.30 |

More lines, now with the values ahead:

| pKi [1] | pKi [2] | SMILES |
| --- | --- | --- |
| > 6.30 | > 6.30 | CC(C)[C@@H](Nc1ccnc(-c2c[nH]c3ncncc23)n1)C(=O)NCC(F)(F)F [Compound 68] |
| > 6.30 | > 6.30 | CC[C@@H](Nc1ccnc(-c2c[nH]c3ncncc23)n1)C(=O)NCC(F)(F)F [Compound 69] |
| 5.30 to 6.30 | > 6.30 | O=C(CNc1nc(-c2c[nH]c3ncncc23)ncc1F)NCC(F)(F)F [Compound 70] |
| > 6.30 | > 6.30 | CC(C)[C@H](C(=O)NCC(F)(F)F)N(C)c1ccnc(-c2c[nH]c3ncncc23)n1 [Compound 73] |
| 5.30 to 6.30 | > 6.30 | CC(C)[C@](C)(Nc1nc(-c2c[nH]c3ncncc23)ncc1F)C(=O)NCC(F)(F)F [Compound 75] |
| 5.30 to 6.30 | > 6.30 | CC[C@](C)(Nc1nc(-c2c[nH]c3ncncc23)ncc1F)C(=O)NCC(F)(F)F [Compound 77] |
| > 6.30 | > 6.30 | O=C(CCNc1ccnc(-c2c[nH]c3ncncc23)n1)NCC(F)(F)F [Compound 82] |
| > 6.30 | > 6.30 | C[C@H](Nc1ccnc(-c2c[nH]c3ncncc23)n1)c1ccc(F)cc1 [Compound 84] |
| > 6.30 | > 6.30 | C[C@H](c1ccccc1)N(C)c1ccnc(-c2c[nH]c3ncncc23)n1 [Compound 85] |
| > 6.30 | > 6.30 | CC(C)[C@@](C)(Nc1ccnc(-c2c[nH]c3ncncc23)n1)C(=O)NCC(F)(F)F [Compound 87] |
| > 6.30 | > 6.30 | CCC(CC)(Nc1ccnc(-c2c[nH]c3ncncc23)n1)C(=O)NCC(F)(F)F [Compound 90] |
| < 5.30 | < 5.30 | O=C(NCC(F)(F)F)C1CN(c2nc(-c3c[nH]c4ncncc34)ncc2F)C1 [Compound 95] |
| 5.30 to 6.30 | > 6.30 | CN(c1ccnc(-c2c[nH]c3ncncc23)n1)C(C(=O)NCC(F)(F)F)c1ccccc1 (stereo not drawn) [Compound 97] |
| > 6.30 | > 6.30 | O=C(NCC(F)(F)F)C1(Nc2ccnc(-c3c[nH]c4ncncc34)n2)CCCC1 [Compound 98] |
| 5.30 to 6.30 | > 6.30 | CN(c1nc(-c2c[nH]c3ncncc23)ncc1F)C1(C(=O)NCC(F)(F)F)CC1 [Compound 99] |
| 5.30 to 6.30 | > 6.30 | CN(c1nc(-c2c[nH]c3ncncc23)ncc1F)C(C(=O)NCC(F)(F)F)c1ccccc1 (stereo not drawn) [Compound 100] |
| > 6.30 | > 6.30 | CC1(C(=O)NCC(F)(F)F)CCCN1c1nc(-c2c[nH]c3ncncc23)ncc1F (stereo not drawn) [Compound 102] |
| > 6.30 | > 6.30 | CC(C)(Nc1nc(-c2c[nH]c3ncncc23)nc2ccccc12)C(=O)NCC(F)(F)F [Compound 105] |
| > 6.30 | > 6.30 | CC(C)(C(=O)NCC(F)(F)F)n1cnc2cnc(-c3c[nH]c4ncncc34)nc21 [Compound 108, 2-(2-(7H-pyrrolo[2,3-d]pyrimidin-5-yl)-9H-purin-9-yl)-N-(2,2,2-trifluoroethyl)-2-methylpropanamide] |
| > 6.30 | > 6.30 | O=C(CCn1ccc2cnc(-c3c[nH]c4ncncc34)nc21)NCC(F)(F)F [Compound 111] |
